Source: patent publication US4003945A, “Novel cyclopropanecarboxylates” (Sumitomo Chemical Company, Limited, priority 1973, dated 1977)
In brackets after ≈: the same amount, converted by molar mass. Read-outs that look alike come from different tables or passages of the source.

Columns and labels:
[1] = test system: housefly adults; test: Oil spray, Campbel's turn table, lethal concentration (Test Example 2); assay type: in vivo; conditions: Musca domestica, 24 h
Method: A group of about 100 housefly adults was exposed to descending spray for 10 minutes, thereafter was transferred to an observation cage, was fed, and was allowed to stand at room temperature.
After a day, the dead and alive were counted to calculate the lethal ratio.

[2] = test system: larvae of tobacco cut worm, diamondback moth and common cabbage worms; test: Fumigation of Chinese cabbages in vinyl house with heated wettable powder (Example XIV); assay type: in vivo; conditions: 10 grams of 40% wettable powder per 30 m^2 compartment
Description: In the vinyl house, the Chinese cabbages were cultivated and the leaves were parasitized with the larvae of tobacco cut worm, diamondback moth and common cabbage worms.
The vinyl house (its height was 2 m) was divided into compartments of 30 m^2 in area and 10 grams of the present compound (1, 4) in the form of 40% wettable powder was put into the plate heated by fire.

[3] = test system: 3rd or 4th instar larvae of tobacco cut worm; test: Diluted emulsion sprayed by settling tower on larvae (Example X); assay type: in vivo; conditions: emulsion diluted to 50 times, 1 ml
Method: Ten of the 3rd or 4th instar larvae of tobacco cut worm were put into a petri dish of 17 cm in diameter.
One ml of the present compound (4, 11, 28, 92, 94, 95, 109, 111) in form of an emulsion obtained in Example X, which were diluted to 50 times with water, were sprayed by means of a settling tower. The said larvae were removed into another petri dish with the leaves of the chinese cabbage leaves. Observation was made after 48 hrs. As a result, more than 90% of the larvae were dead in each case.

[4] = test system: adult leafhoppers; test: Granule applied to rice plants in Wagner pot (Example XIII); assay type: in vivo, leafhopper; conditions: granule of Example W, 10 kg/10 ares
Method: Rice plants at the tillering stage were grown in Wagner pots, and the depth of water was kept at 5 cm.
The present compound (4) obtained in Example W was put into the Wagner pot with 10 kg/10 ares, and the said pot was covered with a wire cage into which 20 adult leafhoppers were released.

[5] = test system: adult planthoppers; test: Residual effect on sprayed rice seedlings (Example XV); assay type: in vivo; conditions: concentrate diluted to 400 times; observed 24 hours after release
Method: About 20 rice seedlings, cultivated for 20 days after sowing in a flower pot of 8.5 cm in diameter, were sprayed with each of the emulsifiable concentrates obtained as in Example X which were diluted to 400 times with water. After air-drying, each pot was covered with a wire cage, into which 20 adult planthoppers were released as time elapsed. And the observation was made after 24 hours.

[6] = test system: leafhoppers of resistant and susceptible strains; test: Emulsion sprayed on rice seedlings, leafhoppers released (Example XVI); assay type: in vivo, leafhopper; conditions: emulsion diluted to 50 times
Method: About 20 rice seedlings, cultivated for 20 days after sowing in a flower pot of 8.5 cm in diameter were sprayed with each of the present compounds (31, 32, 35, 39, 40, 42, 45, 48, 55, 59, 60, 63, 131 - 134, 139) in the form of an emulsion which were diluted to 50 times. Each pot was put into the beaker and covered with gauze, into which leafhoppers of resistant and susceptible strains, respectively, were released in each beaker. And the number of knocked down insects after 1 hour and the mortality after 24 hours were counted. As a result, the knock down per centage was more than 50% and the mortality was more than 80% in each case.

[7] = test system: tobacco cut worm; test: Dust on Chinese cabbages in the field (Example XVIII); assay type: in vivo; conditions: 5% dust, 3kg/10 ares, for 2 months
Description: Each 5% dust of the present compounds 31, 32, 62, 63 was spread in a ratio of 3kg/10 ares on the Chinese cabbages of 40 days after sowing in the field. And about 9,000 eggs of tobacco cut worm were put on the leaves of the Chinese cabbages per 10 ares every 5 days for a month.

[8] = test system: Full grown larvae of the Northern house mosquito; test: Larvicidal test in beaker with diluted emulsifiable concentrate (Example XIX); assay type: in vivo; conditions: Table 5; after 24 hours
Method: 30 Full grown larvae of the Northern house mosquito were released into the beaker with 200 ml of dilution of each emulsifiable concentrates which obtained in Example X.

[9] = test system: adults of houseflies; test: Oil preparation sprayed on Campbell's turn table (Example XX); assay type: in vivo, housefly; conditions: Musca domestica, 24 h; Table 6; 1% oil preparation 5 ml, 10 minutes exposure, next day
Method: The oil preparation obtained as in Example B (5 ml) was sprayed by the use of a Campbell's turn table [Soap & Sanitary Chemicals, Vol. 14, No. 6, 119 (1938) ] on 100 adults of houseflies were exposed to the spray for 10 minutes. The houseflies were then allowed to stand with feeding. On the next day, dead and alive were observed.

[10] = Oral acute toxicity in male mice (Example XXI); conditions: mouse, in vivo, Table 7, male mice of about 20 g
Description: An emulsion prepared by diluting with water the present compounds 31, 32, 33, 34, 35, 46, 63, in the form of an emulsifiable concentrate was orally administrated to male mice of about 20 g in body weight.

With `C#CC(C=CC)OC(=O)C1C(C=C(C)C)C1(C)C` (stereo not drawn) [Compound 1, 1-Ethynyl-2-butenyl chrysanthemate] the LC50 [1] was 5500 µg/mL (≈ 22.3 mM) and the “increasing of the damage” value [2] was “the increasing of the damage was not found”.
For `C#CC(OC(=O)C1C(C=C(C)C)C1(C)C)C(C)=CCC` (stereo not drawn) [Compound 4, 1-Ethynyl-2-methyl-2-pentenyl chrysanthemate], the LC50 [1] was 1400 µg/mL (≈ 5.1 mM), the “larvae dead after 48 hrs” value [3] was “more than 90%” and the “leafhoppers dead after 24 hrs” value [4] was “more than 90%”. For the same compound, the “increasing of the damage” value [2] was “the increasing of the damage was not found”.
In the case of `C#CC(C=Cc1ccccc1)OC(=O)C1C(C=C(C)C)C1(C)C` (stereo not drawn) [Compound 31, α-Ethynylcinnamyl chrysanthemate], the “Mortality (%) After 1 day” value [5] is reported as 100%, the “Mortality (%) After 6 days” value [5] is reported as 75.8% and the “knock down percentage after 1 hour” value [6] is reported as “more than 50%”. The “mortality after 24 hours” value [6] was “more than 80%”, the “damage of the Chinese cabbages by tobacco cut worms” value (shortened to “damage of the Chinese cabbages”) [7] was “the damage of the Chinese cabbages by tobacco cut worms was not found” and the LC50 [8] was 0.12 ppm. For the same compound, the mortality at 1 % [9] was 92% and the LD50 at 48 h [10] was over 500 mg/kg.
With `C#CC(OC(=O)C1C(C=C(C)C)C1(C)C)C(C)=Cc1ccccc1` (stereo not drawn) [Compound 32, α-Ethynyl-β-methylcinnamyl chrysanthemate] the “Mortality (%) After 1 day” value [5] was 100%, the “Mortality (%) After 6 days” value [5] was 100% and the “knock down percentage after 1 hour” value [6] was “more than 50%”. The “mortality after 24 hours” value [6] was “more than 80%”, the “damage of the Chinese cabbages” value [7] was “the damage of the Chinese cabbages by tobacco cut worms was not found” and the LC50 [8] was 0.069 ppm. For the same compound, the mortality at 1 % [9] was 96% and the LD50 at 48 h [10] was over 500 mg/kg.
In the case of `C#CC(OC(=O)C1C(C=C(C)C)C1(C)C)C(C)=Cc1ccc(C)cc1` (stereo not drawn) [Compound 33, α-Ethynyl-β-methyl-4-methylcinnamyl chrysanthemate], the LC50 [8] is reported as 0.34 ppm and the LD50 at 48 h [10] is reported as over 600 mg/kg.
With `C#CC(OC(=O)C1C(C=C(C)C)C1(C)C)C(C)=Cc1ccccc1Cl` (stereo not drawn) [Compound 34, α-Ethynyl-β-methyl-2-chlorocinnamyl chrysanthemate] the LC50 [8] was 0.14 ppm and the LD50 at 48 h [10] was over 600 mg/kg.
For `C#CC(OC(=O)C1C(C=C(C)C)C1(C)C)C(C)=Cc1ccc2c(c1)OCO2` (stereo not drawn) [Compound 35, α-Ethynyl-β-methyl-3,4-methylenedioxycinnamyl chrysanthemate], the “knock down percentage after 1 hour” value [6] was “more than 50%”, the “mortality after 24 hours” value [6] was “more than 80%” and the LD50 at 48 h [10] was over 600 mg/kg.
Compound `C#CC(OC(=O)C1C(C=C(C)C)C1(C)C)C(C)=Cc1ccc(C(C)C)cc1` (stereo not drawn) [Compound 46, α-Ethynyl-β-methyl-4-iso-propylcinnamyl chrysanthemate] has an LD50 at 48 h [10] of over 600 mg/kg.
With `C#CC(C=CCc1ccccc1)OC(=O)C1C(C=C(C)C)C1(C)C` (stereo not drawn) [Compound 62, α-Ethynyl-γ-benzylallyl chrysanthemate] the “Mortality (%) After 1 day” value [5] was 100%, the “Mortality (%) After 6 days” value [5] was 100% and the “damage of the Chinese cabbages” value [7] was “the damage of the Chinese cabbages by tobacco cut worms was not found”. The LC50 [8] was 0.034 ppm and the mortality at 1 % [9] was 93%.
In the case of `C#CC(OC(=O)C1C(C=C(C)C)C1(C)C)C(=Cc1ccccc1)CC` (stereo not drawn) [Compound 63, α-Ethynyl-β-ethylcinnamyl chrysanthemate], the “Mortality (%) After 1 day” value [5] is reported as 100%, the “Mortality (%) After 6 days” value [5] is reported as 53.3% and the “knock down percentage after 1 hour” value [6] is reported as “more than 50%”. The “mortality after 24 hours” value [6] was “more than 80%”, the “damage of the Chinese cabbages” value [7] was “the damage of the Chinese cabbages by tobacco cut worms was not found” and the LC50 [8] was 0.14 ppm. For the same compound, the mortality at 1 % [9] was 95% and the LD50 at 48 h [10] was over 600 mg/kg.
For `C#CC(OC(=O)C1C(C=C2CCCC2)C1(C)C)C(C)=CCC1=CCCC1` (stereo not drawn) [Compound 111, 1-Ethynyl-2-methyl-4-(1'-cyclopentenyl)-2-butenyl 2",2"- dimethyl-3"-cyclopentylidene-methylcyclopropanecarboxylate], the LC50 ([1]; Table 3a, oil spray 5 ml, 10 minutes exposure, counted after a day, read-out: LC50) was 410 µg/mL (≈ 1.16 mM) and the “larvae dead after 48 hrs” value [3] was “more than 90%”.
For `C#CC(OC(=O)C1C(C=C(Cl)Cl)C1(C)C)C(C)=Cc1c(C)cc(OC)cc1C` (stereo not drawn) [Compound 136, α-Ethynyl-β-methyl-2,6- -dimethyl-4-methoxy cinnamyl 2',2'-dimethyl-3'2"-2"- dichlorovinyl)-cyclopropane-carboxylate], the mortality at 1 % [9] was 90%.
With `C#CC(OC(=O)C1C(C=C(Cl)Cl)C1(C)C)C(C)=Cc1ccc(C#N)cc1` (stereo not drawn) [Compound 137] the mortality at 1 % [9] was 100%.
In the case of `C#CC(C=C(c1ccccc1)c1ccccc1)OC(=O)C1C(C=C(Cl)Cl)C1(C)C` (stereo not drawn) [Compound 138], the mortality at 1 % [9] is reported as 100%.
In the case of `C#CC(OC(=O)C1C(C=C(Cl)Cl)C1(C)C)C(C)=Cc1ccc2c(c1)OCO2` (stereo not drawn) [Compound 139, α-Ethynyl-β-methyl-3,4-methylenedioxy-cinnamyl 2',2'-dimethyl-3'-(2",2"-dichlorovinyl)-cyclopropanecarboxylate], the “knock down percentage after 1 hour” value [6] is reported as “more than 50%”, the “mortality after 24 hours” value [6] is reported as “more than 80%” and the mortality at 1 % [9] is reported as 95%.
